Assay results from patent EP1380292A1, “Tiaprid for the treatment of depressions” (Mewicon med. wiss. Beratung GmbH, priority 2002, dated 2004).

What was measured:
D2/D3 Dopaminrezeptoren = conditions: from the literature (Scatton et al., Eur Psychiatry 2001); cited from earlier work
[1] = tested on: Pyramidenzellen im Hippokampus-Schnittpräparat der Ratte; test: Long-term potentiation in the hippocampus slice preparation in vitro; set-up: species or system CD-Ratten
Method: Testmethode 2 (Langzeitpotenzierung im Hippokampus-Schnittpräparat in vitro)
Die Wirkung von Tiaprid auf die Langzeitpotenzierung der Pyramidenzellen im Hippokampus-Schnittpräparat der Ratte wurde bestimmt.
Für die Durchführung dieser Studie wurden 15 erwachsene männliche CD-Ratten verwendet. Die Isolation des Hippokampus erfolgte an äthernarkotisierten und anschließend exsanguinierten Tieren. In Phosphat-gepufferter Salzlösung (NaCl: 124 mM; KCl: 5 mM; CaCl2: 2 mM; MgSO4: 2 mM; NaH2PO4: 1,25 mM; NaHCO3: 26 mM; Glucose: 10 mM; Kontroll-Lösung: künstliche Zerebral-Spinal-Flüssigkeit (ASCF, artificial cerebral spinal fluid); alle von der Firma Roth, Karlsruhe DE) wurde der mittlere Teil des Hippokampus mit Hilfe eines Schnellklebers aufgeblockt und mit einem Vibratom (Rhema Labortechnik) in 400 µm dicke Scheiben geschnitten. Die Aufbewahrung dieses Hippokampusschnittes erfolgte für mindestens 1 Stunde vor Versuchsbeginn (siehe S.J. Schiff, G.G. Somjen "The Effects of Temperature on Synaptic Transmission in Hippocampal Tissue Slices" Brain Research (1985), 345, 279-284) in einer mit Carbogen durchperlten Inkubationskammer.
Das Experiment selbst wurde in einer sog. "Base Unit mit Haas Top" (Firma Medical Systems Corp.) bei 35°C durchgeführt. Der mit Hilfe peristaltischer Pumpen (Infusomat, B. Braun Melsungen AG) superfundierte Hippokampusschnitt lag auf einem Stück Gaze. […]

[2] = tested on: frontalem Kortex, Hippokampus, Striatum und Formatio Reticularis abgeleiteten Feldpotentiale; test: Tele-Stereo-EEG: changes of EEG frequencies in freely moving rats after i.p. administration; format: in vivo, Fischer-344 Ratten; conditions: for Veränderungen der EEG-Frequenzen: i.p., 40 bis 100 mg/kg, rat, significant at least at P < 5 %-Level
Method: Testverfahren 1 ((Tele-Stereo-EEG)
Die Veränderungen der EEG-Frequenzen nach Gabe von Salzlösung (Kontrolle) bzw. einer Dosis von Tiaprid (40 bis 100 mg/kg Körpergewicht) wurden bestimmt.
Der Stecker diente der Aufnahme eines 4-Kanal-Senders zur telemetrischen Übertragung der aus frontalem Kortex, Hippokampus, Striatum und Formatio Reticularis abgeleiteten Feldpotentiale. Die Signale wurden auf einem Computer System (Software "EEG-Analyse", Betriebsystem OS Science, Laborrechner "LabTeam" der Firma MediSyst, Linden DE) in Echtzeit einer Fast-Fourier-Transformation unterworfen und die Leistungsdichtespektren jeweils über 15 bis 60 Minuten gemittelt. Die Unterteilung der Spektren in 6 verschiedene Frequenzbereiche erlaubte die Erfassung pharmakospezifischer Veränderungen in Bezug auf die jeweils vor der Applikation gemessenen Vorwerte innerhalb dieser Frequenzbänder.
Zum Applikationsprotokoll der Substanzen: Die Substanzen wurden i.p. 45 Minuten nach Beginn der Messungen (Vorwert) injiziert. Fünf Minuten später wurden die Messungen wieder gestartet, mindestens über die nächsten 5 Stunden kontinuierlich analysiert und in 15-minütigen Perioden zusammengefasst. Die Testsubstanz wurde in einer Dosierung von 40 bis 100 mg/kg appliziert. Die experimentelle Serie wurde mit der Injektion von Salzlösung (Kontrolle) begonnen.
Die beobachteten Frequenzänderungen wurden mittels einer Diskriminanzanalyse mit den Ergebnissen mit herkömmlichen antidepressiv wirkenden Arzneimitteln sowie Arzneimitteln für andere Indikationen verglichen. Es wurden folgende Arzneimittel verwendet: 100 mg/kg Tiaprid (Tiapr), 2 mg/kg Paroxetin (Parox), 10 mg/kg Imipramin (Imip), 10 mg/kg Amitryptilin (Amit), 1 mg/kg Nomifensin (Nomi), 0.5 mg/kg Midazolam (Midaz), 60 mg/kg Phenobarbital (Pheno), 60 mg/kg Meprobamat (Meprob), 0.5 mg/kg Chlorpromazin (Chlorp), 0,25 mg/kg Haloperidol (Halop), 1 mg/kg Prothipendyl (Prothi), 10 mg/kg Thioridazin (Thior), 15 mg/kg Carbamazepin (Carba), 75 mg/kg Valproinsäure (Valpr), 6 mg/kg Phenytoin (Pheny). Des weiteren wurden geprüft: 1,3 Vol.-% Halothan (Haloth), 100 mg/kg Propofol (Propo), 1,0 Vol.-% Isofluran (Isofl), 4,5 Vol.-% Desfluran (Desfl), 1,8 Vol.-% Sevofluran (Sevofl) und 1,7 Vol.-% Enfluran (Enfl). Die Ergebnisse sind in Fig. 2 dargestellt.

SMILES: CCN(CC)CCNC(=O)c1cc(S(C)(=O)=O)ccc1OC [Tiaprid, N-2-(Diethylaminoethyl)-5-methylsulfonyl-2-methoxybenzamide]
- Rezeptor-Bindungsprofil (D2/D3 Dopaminrezeptoren): selektive Blockade von D2/D3 Dopaminrezeptoren
- Amplitude der Populationsspikes ([1]; Tiaprid added to superfusion fluid, 2 concentrations, rat hippocampus slice, 35°C, N = 6 slices): konzentrationsabhängig zu einer deutlichen Abnahme der Amplitude der Populationsspikes
- Langzeitpotenzierung ([1]; rat hippocampus slice in vitro, tetanic stimulus): Unterdrückung der "Langzeitpotenzierung"
- Muster der EEG-Frequenzänderungen ("Fingerprint", Diskriminanzanalyse) ([2]; discriminant analysis against antidepressants and drugs for other indications, 100 mg/kg Tiaprid): korrelieren in signifikanter Weise mit den Mustern, die für andere antidepressive Arzneimittel kennzeichnend sind
- Veränderungen der EEG-Frequenzen ([2]; first hour after administration): Abfall bei allen Frequenzen
- Veränderungen der elektrischen Gehirnaktivität ([2]; i.p. single dose, compared with saline (0,9 % NaCl-Lösung), all brain areas, all frequencies): statistisch signifikantes Niveau im Vergleich zu Salzlösung
- Veränderungen der EEG-Frequenzen ([2]; next (second) hour after administration): im Hippokampus und Striatum Theta- und Alpha2-Wellen nicht mehr so stark vermindert
